Structures can show the parent of a compound that is named as a salt.

In one test the target is T1, IKKε (Homo sapiens, UniProt Q14164).
T1 construct: purchased Invitrogen PR8031B
T1 sequence (Q14164 1-716): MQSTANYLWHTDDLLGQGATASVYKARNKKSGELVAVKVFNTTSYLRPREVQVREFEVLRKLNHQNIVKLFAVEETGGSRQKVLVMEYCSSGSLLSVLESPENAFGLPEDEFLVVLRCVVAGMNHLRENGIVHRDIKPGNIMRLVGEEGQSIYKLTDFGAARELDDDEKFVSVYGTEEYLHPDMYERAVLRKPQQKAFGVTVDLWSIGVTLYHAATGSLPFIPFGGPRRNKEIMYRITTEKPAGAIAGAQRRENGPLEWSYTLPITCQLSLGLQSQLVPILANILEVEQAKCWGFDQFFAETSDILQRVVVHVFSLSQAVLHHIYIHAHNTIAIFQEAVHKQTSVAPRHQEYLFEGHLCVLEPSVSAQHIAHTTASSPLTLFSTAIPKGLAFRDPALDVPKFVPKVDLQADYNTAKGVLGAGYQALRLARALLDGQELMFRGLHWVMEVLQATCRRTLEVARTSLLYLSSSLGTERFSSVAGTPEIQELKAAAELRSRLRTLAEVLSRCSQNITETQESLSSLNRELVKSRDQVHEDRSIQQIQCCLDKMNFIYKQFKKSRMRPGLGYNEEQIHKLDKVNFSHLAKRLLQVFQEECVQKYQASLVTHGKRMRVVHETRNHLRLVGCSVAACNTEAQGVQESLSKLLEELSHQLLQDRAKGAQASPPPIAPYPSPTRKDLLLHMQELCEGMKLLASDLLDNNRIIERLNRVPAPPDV
Put plainly: IKKε inhibition, ADP-Glo Kinase Assay. The class given is biochemical. Conditions: luminometer. In short, it runs like this:
(§1)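 Each recombinant kinase enzyme system was run per the manufacturer's protocol in 40 mM Tris pH 7.5, 20 mM MgCl2 and 0.1 mg/mL BSA. Kinase activity was detected as ADP formation by ADP-Glo luminescence.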

For a further test, the target named is T2, TBK1 (Homo sapiens, UniProt Q9UHD2).
T2 construct: purchased Promega V3991
T2 sequence (Q9UHD2 1-729): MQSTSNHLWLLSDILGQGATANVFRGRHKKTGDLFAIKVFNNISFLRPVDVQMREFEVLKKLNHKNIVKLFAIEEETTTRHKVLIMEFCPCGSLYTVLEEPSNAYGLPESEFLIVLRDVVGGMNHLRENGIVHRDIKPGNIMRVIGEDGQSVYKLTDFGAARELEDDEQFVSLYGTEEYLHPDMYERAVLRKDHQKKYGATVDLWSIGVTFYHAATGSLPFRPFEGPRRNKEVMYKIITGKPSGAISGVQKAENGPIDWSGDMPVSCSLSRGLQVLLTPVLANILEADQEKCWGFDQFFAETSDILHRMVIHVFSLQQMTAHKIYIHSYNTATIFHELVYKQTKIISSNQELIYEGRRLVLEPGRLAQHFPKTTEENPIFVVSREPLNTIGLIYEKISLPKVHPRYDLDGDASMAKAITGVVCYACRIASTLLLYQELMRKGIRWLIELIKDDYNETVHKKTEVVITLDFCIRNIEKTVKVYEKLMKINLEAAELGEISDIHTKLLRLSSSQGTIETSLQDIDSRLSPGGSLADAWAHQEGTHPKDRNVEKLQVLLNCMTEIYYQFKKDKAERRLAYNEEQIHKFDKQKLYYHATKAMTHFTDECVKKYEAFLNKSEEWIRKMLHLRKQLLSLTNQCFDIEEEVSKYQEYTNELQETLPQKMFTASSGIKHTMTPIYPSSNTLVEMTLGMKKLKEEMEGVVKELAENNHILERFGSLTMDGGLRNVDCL
Description: TBK1 inhibition, ADP-Glo Kinase Assay. The class given is biochemical. The following applies: luminometer. In short, it runs like this: as §1
In general terms: ADP-Glo first removes unused ATP, then detects ADP through luciferase.

What is called IC50 is the midpoint of a concentration-inhibition curve. The low end stands for greater potency, the high end for weaker potency. Take `CN1CCN(c2ccc(C(=O)Nc3n[nH]c4ccc(C(=O)NCc5cnco5)cc34)cc2)CC1` [Example 172, 3-(4-(4-Methylpiperazin-1-yl)benzamido)-N-(oxazol-5-ylmethyl)-1H-indazole-5-carboxamide]: the values for the IC50 against IKKε and against TBK1 were 0.31 µM and 0.035 µM, respectively.
For `COc1ccc(C(=O)Nc2n[nH]c3ccc(C(=O)NCc4cccs4)cc23)nc1` [Example 8, 3-(5-Methoxypicolinamido)-N-(thiophen-2-ylmethyl)-1H-indazole-5-carboxamide Hydrochloride], in that order: 0.33 µM and 0.082 µM.
With `C[C@H]1CN(c2ccc(C(=O)Nc3n[nH]c4ccc(C(=O)NCc5cccs5)cc34)cc2)CCN1` [Example 117, (S)-3-(4-(3-Methylpiperazin-1-yl)benzamido)-N-(thiophen-2-ylmethyl)-1H-indazole-5-carboxamide 2,2,2-trifluoroacetate], the IC50 against IKKε amounted to 0.071 µM; against TBK1 it was 0.0033 µM.
Taken in the same sequence, the figures for `C[C@H](NC(=O)c1ccc2[nH]nc(NC(=O)c3ccc(N4CCN(C)CC4)cc3)c2c1)c1ccccc1` [Example 176, (S)-3-(4-(4-Methylpiperazin-1-yl)benzamido)-N-(1-phenylethyl)-1H-indazole-5-carboxamide] were 0.34 µM and 0.058 µM.
Taken in the same sequence, the figures for `Cc1cc(N2CCN(C)CC2)ccc1C(=O)Nc1n[nH]c2ccc(C(=O)NCc3cccs3)cc12` [Example 74, 3-(2-Methyl-4-(4-methylpiperazin-1-yl)benzamido)-N-(thiophen-2-ylmethyl)-1H-indazole-5-carboxamide] were 0.079 µM and 0.0044 µM.
`CN1CCN(c2ccc(C(=O)Nc3n[nH]c4ccc(C(=O)NCc5ccon5)cc34)cc2)CC1` [Example 173, N-(Isoxazol-3-ylmethyl)-3-(4-(4-methylpiperazin-1-yl)benzamido)-1H-indazole-5-carboxamide]: the half-maximal inhibitory concentration (IC50) against IKKε was determined as 0.26 µM; on TBK1 it was 0.033 µM.
Taken in the same sequence, the figures for `CC(C)CC(NC(=O)c1ccc2[nH]nc(NC(=O)c3ccc(N4CCN(C)CC4)cc3)c2c1)c1cccs1` (stereo not shown) [Example 129, N-(3-Methyl-1-(thiophen-2-yl)butyl)-3-(4-(4-methylpiperazin-1-yl)benzamido)-1H-indazole-5-carboxamide] were 0.054 µM and 0.022 µM.
Taken in the same sequence, the figures for `Cc1cc(C(=O)Nc2n[nH]c3ccc(C(=O)NCc4cccs4)cc23)ccc1N1CCN(C)CC1` [Example 79, 3-(3-Methyl-4-(4-methylpiperazin-1-yl)benzamido)-N-(thiophen-2-ylmethyl)-1H-indazole-5-carboxamide] were 0.22 µM and 0.015 µM.
Taken in the same sequence, the figures for `CN1CCN(c2ccc(C(=O)Nc3n[nH]c4ccc(C(=O)C(C(=O)O)c5cccs5)cc34)cc2)CC1` (stereo not shown) [Example 75, 3-(3-(4-(4-Methylpiperazin-1-yl)benzamido)-1H-indazol-5-yl)-3-oxo-2-(thiophen-2-yl)propanoic Acid] were 0.67 µM and 0.18 µM.
Turning to `O=C(NCc1cccs1)c1ccc2[nH]nc(NC(=O)c3ccc(NCCN4CCOCC4)cc3)c2c1` [Example 153, 3-(4-((2-morpholinoethyl)amino)benzamido)-N-(thiophen-2-ylmethyl)-1H-indazole-5-carboxamide], the IC50 against IKKε was 0.037 µM; against TBK1, 0.0037 µM.
Consider `CCC(NC(=O)c1ccc2[nH]nc(NC(=O)c3ccc(N4CC(C)OC(C)C4)cc3)c2c1)c1cccs1` (stereo not shown) [Example 96, 3-(4-(2,6-Dimethylmorpholino)benzamido)-N-(1-(thiophen-2-yl)propyl)-1H-indazole-5-carboxamide 2,2,2-trifluoroacetate], for which the IC50 on IKKε worked out at 0.047 µM; against TBK1, 0.0051 µM.
For `CN1CCN(c2ccc(C(=O)Nc3n[nH]c4ccc(C(=O)NC(CO)c5cccs5)cc34)cc2)CC1` (stereo not shown) [Example 45, N-(2-Hydroxy-1-(thiophen-2-yl)ethyl)-3-(4-(4-methylpiperazin-1-yl)benzamido)-1H-indazole-5-carboxamide], in that order: 0.014 µM and 0.0021 µM.
For the compound `CCC(NC(=O)c1ccc2[nH]nc(NC(=O)c3ccc(N4CCOCC4)cc3)c2c1)c1cccs1` (stereo not shown) [Example 54, 3-(4-Morpholinobenzamido)-N-(1-(thiophen-2-yl)propyl)-1H-indazole-5-carboxamide], the 50% inhibitory concentration (IC50) worked out at 0.0031 µM against IKKε and 0.00036 µM at TBK1.
Consider `O=C(Cc1cccs1)Nc1ccc2[nH]nc(NC(=O)c3ccc(N4CCOCC4)cc3)c2c1` [Example 144, 4-Morpholino-N-(5-(2-(thiophen-2-yl)acetamido)-1H-indazol-3-yl)benzamide], for which the IC50 stood at 0.25 µM against IKKε and 0.069 µM on TBK1.
For `CCC(NC(=O)c1ccc2[nH]nc(NC(=O)c3ccc(N4CCC(O)CC4)cc3)c2c1)c1cccs1` (stereo not shown) [Example 108, 3-(4-(4-Hydroxypiperidin-1-yl)benzamido)-N-(1-(thiophen-2-yl)propyl)-1H-indazole-5-carboxamide], in that order: 0.015 µM and 0.0028 µM.
For the compound `O=C(Nc1n[nH]c2ccc(C(=O)NC3(c4ccccc4)CC3)cc12)c1ccc(N2CCOCC2)cc1` [Example 67, 3-(4-Morpholinobenzamido)-N-(1-phenylcyclopropyl)-1H-indazole-5-carboxamide], the IC50 worked out at 0.005 µM at IKKε and 0.003 µM against TBK1.
Taken in the same sequence, the figures for `CC[C@@H](NC(=O)c1ccc2[nH]nc(NC(=O)c3ccc(N4CCN(C)CC4)cc3)c2c1)c1cccs1` [Example 112, (R)-3-(4-(4-Methylpiperazin-1-yl)benzamido)-N-(1-(thiophen-2-yl)propyl)-1H-indazole-5-carboxamide] were 0.011 µM and 0.0042 µM.
For `CC1CN(c2ccc(C(=O)Nc3n[nH]c4ccc(C(=O)NC(C)c5ccccc5)cc34)cc2)CC(C)N1` (stereo not shown) [Example 182, 3-(4-(3,5-Dimethylpiperazin-1-yl)benzamido)-N-(1-phenylethyl)-1H-indazole-5-carboxamide], in that order: 0.0081 µM and 0.003 µM.
For `CN1CCN(c2ccc(C(=O)Nc3n[nH]c4ccc(C(=O)NCc5ccccn5)cc34)cc2)CC1` [Example 85, 3-(4-(4-Methylpiperazin-1-yl)benzamido)-N-(pyridin-2-ylmethyl)-1H-indazole-5-carboxamide bis(2,2,2-trifluoroacetate)], in that order: 1.63 µM and 0.16 µM.
Consider `COCCCNc1ccc(C(=O)Nc2n[nH]c3ccc(C(=O)NCc4cccs4)cc23)cc1` [Example 151, 3-(4-((3-Methoxypropyl)amino)benzamido)-N-(thiophen-2-ylmethyl)-1H-indazole-5-carboxamide], for which the 50% inhibitory concentration (IC50) against IKKε came out at 0.052 µM; on TBK1, 0.0079 µM.
Taken in the same sequence, the figures for `COCCNc1ccc(C(=O)Nc2n[nH]c3ccc(C(=O)NCc4cccs4)cc23)cc1` [Example 150, 3-(4-((2-methoxyethyl)amino)benzamido)-N-(thiophen-2-ylmethyl)-1H-indazole-5-carboxamide] were 0.049 µM and 0.0072 µM.
For `CN(C)CCNc1ccc(C(=O)Nc2n[nH]c3ccc(C(=O)NCc4cccs4)cc23)cc1` [Example 158, 3-(4-((2-(Dimethylamino)ethyl)amino)benzamido)-N-(thiophen-2-ylmethyl)-1H-indazole-5-carboxamide], in that order: 0.096 µM and 0.0087 µM.
For the compound `CN1CCN(c2ccc(C(=O)Nc3n[nH]c4ccc(C(=O)NC(c5cccs5)C(F)(F)F)cc34)cc2)CC1` (stereo not shown) [Example 135, 3-(4-(4-Methylpiperazin-1-yl)benzamido)-N-(2,2,2-trifluoro-1-(thiophen-2-yl)ethyl)-1H-indazole-5-carboxamide], the results for the concentration for half-maximal inhibition (IC50) against IKKε and on TBK1 were 0.038 µM and 0.0085 µM, respectively.

For the origin of these results see patent US10294207B2, “Pyrazole derivatives as TNIK, IKKϵ and TBK1 inhibitor and pharmaceutical composition comprising same” (GREEN CROSS CORPORATION, priority 2015, dated 2019).
